Assay results from publication PMC11856857, “Protease-Resistant, Broad-Spectrum Antimicrobial Peptides with High Antibacterial and Antifungal Activity” (Life, 2025).
≈ marks a conversion by molar mass, not a printed value. Where a SMILES comes first, the peptide text is derived from it.

Key:
[1] = system: methicillin-resistant S. aureus (MRSA)
Experimental: (§2) The antibacterial activity of the bacterial strains was determined using the EUCAST broth microdilution method [24]. Bacterial strains were streaked into the MHA and incubated at 37 °C overnight. The initial doses were adjusted to 1024 µg/mL using a peptide concentration measurement kit (Pierce™ Quantitative Fluorometric Peptide Assay, Thermo Scientific™) and serially diluted to 0.125 µg/mL. All samples were tested in triplicate [25, 26]. The antifungal activity of the Candida species was measured in accordance with the guidelines in CLSI document M27-A3 [27].

Aspergillus flavus (AF) = settings: clinical strain AF1
Experimental: (§3) Clinically resistant bacterial strains that are classified as “ESKAPE pathogens”, including vancomycin-resistant Enterococcus faecium (VRE), methicillin-resistant S. aureus (MRSA), Klebsiella pneumoniae (KP), Acinetobacter baumannii (AB), P. aeruginosa (PA) by WHO21, multi-drug-resistant Aspergillus flavus (AF), C. albicans (CA), and C. krusei (CK), were provided by Acibadem Labmed.
as §2

C. albicans ATCC 10231 = format: cell-based, Candida albicans
[2] = system: vancomycin-resistant Enterococcus faecium (VRE)
Experimental: as §3, §2

[3] = system: ESKAPE pathogens, multi-drug-resistant A. flavus (AF), and C. albicans (CA) strains
Experimental: as §3, §2

proteinase K = target: T1, proteinase K (Parengyodontium album, UniProt P06873); experiment: Stability toward enzymatic degradation (protease resistance assay); format: in vitro ADME; settings: peptide 1 mg/mL in TBS (50 mM Tris, 150 mM NaCl, pH 7.6) with 10% DMSO, proteinase K 1 mg/mL (30 U/mg), 37 °C, overnight (also 10 min, 30 min), HPLC at 214 nm
T1 construct: purchased Qiagen
T1 sequence (P06873 106-384): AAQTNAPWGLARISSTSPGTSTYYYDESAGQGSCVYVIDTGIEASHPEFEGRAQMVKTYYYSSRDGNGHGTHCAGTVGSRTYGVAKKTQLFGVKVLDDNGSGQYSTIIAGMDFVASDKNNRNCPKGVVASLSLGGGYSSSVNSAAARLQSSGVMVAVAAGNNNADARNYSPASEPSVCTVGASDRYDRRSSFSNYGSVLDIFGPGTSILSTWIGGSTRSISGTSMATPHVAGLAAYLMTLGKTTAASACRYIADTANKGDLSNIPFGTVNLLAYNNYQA
Experimental: Peptide solutions were prepared at a final concentration of 1 mg/mL in TBS buffer (50 mM Tris, 150 mM NaCl, pH 7.6) including 10% DMSO. The proteinase K solution was adjusted to 1 mg/mL (enzyme activity = 30 U/mg). The peptide solution was then incubated at 37 °C overnight in an orbital shaker. After incubation, the reaction was blocked by adding 1% TFA (100 µL) in water. Peptide solutions with/without the proteinase K enzyme were analyzed at 214 nm using HPLC with an analytic column (AdvanceBio Peptide Plus, 2.1 × 150 mm, 2.7 µm, LC column, Agilent Technologies, Santa Clara, CA, USA) following the linear gradient method (30 min in a range of 5–80% acetonitrile including 0.025% TFA). MIC experiments were repeated to measure biological activities after treating the peptides with proteinase K.

[4] = system: S. aureus (ATCC 29213) inoculated wound
3t3 cell line = format: cell-based, mouse; settings: 24 h
Experimental: (§1) 3T3 and HaCaT cells were grown in DMEM consisting of 1% pen/strep and 10% FBS. A total of 5 × 10^4 cells were loaded into each well of a 96-well plate and incubated at 37 °C using a 5% CO2 incubator. All samples were measured in triplicate between 0.5–32 µg/mL concentrations and incubated at 37 °C for 24 h in a 5% CO2 incubator. Only cells and Mag-2 were used as negative and positive controls, respectively. After 24 h, cell cytotoxicity was evaluated using a cell proliferation kit (MTT, Roche, Basel, Switzerland) following the kit protocol and analyzed at 550 nm and 690 nm using a microplate reader (Gen5 Synergy HT BioTek). The concentration of peptides that killed 50% of the cells was determined as the IC50 in the cytotoxicity experiments.

[5] = system: Klebsiella pneumoniae (KP)
Experimental: as §2

[6] = system: resistant Klebsiella pneumoniae (KP) strain; format: cell-based; settings: resistant (KP) strain
[7] = system: Acinetobacter baumannii (AB)
Experimental: as §3, §2

HaCaT cell line = format: cell-based, human; settings: 24 h
Experimental: as §1

[8] = system: S. aureus (ATCC 29213)-infected silk suture wound; experiment: Surgical site infection model; format: in vivo, Wistar rats; settings: MICX40, 100 µL topically once, 3 h after treatment; p < 0.01
Experimental: Two McFarland S. aureus (ATCC 29213) bacteria were used for suture contamination. The 1.5 cm silk sutures (3-0) were incubated in brain heart infusion (BHI) broth at 37 °C, 150 rpm for 10 min. At the end of the incubation, the sutures were dried on sterile filter paper for 10 min. After drying, one of the sutures was placed in BHI broth, and the bacteria were measured. The number of bacteria obtained from the suture was 7 × 10^5 CFU/mL.
The rats were randomly divided into four groups consisting of seven rats per group and anesthetized with isoflurane. The back of the rat was shaved, sterilized with 70% ethanol, and two 1.5 cm full-thickness wounds were incised centrally on the dorsal midline of the neck. A 1.5 cm S. aureus (ATCC 29213)-infected 3-0 silk suture was placed into the wound incision. A staple was attached to the middle of the incision to prevent the rat from removing the infected suture. After implantation of the suture into the wound, the rats were treated topically once with 100 µL of D-TN6 (MICX40), ampicillin (MICX40), or SF. The animals were decapitated 3 h after treatment. Wound areas were dissected and placed into BHI broth. After homogenization, the bacteria on the wound were counted.

[9] = MICX40 topically twice a day for 10 days, ELISA, means ± S.E.M.

Experimental for C.albicans (CA): as §2
Experimental for C.krusei (CK): as §2
Experimental for P. aeruginosa (PA): as §2

Question: How did the “MIC MRSA 1” value ([1]; clinical strain MRSA 1) turn out when `CC(C)C[C@@H](NC(=O)[C@H](N)CCCNC(=N)N)C(=O)N[C@H](CC(C)C)C(=O)N[C@H](CCCNC(=N)N)C(=O)N[C@H](CC(C)C)C(=O)N[C@H](CC(C)C)C(=O)N[C@H](CC(C)C)C(=O)N[C@H](CCCNC(=N)N)C(=O)N[C@H](CC(C)C)C(=O)N[C@H](CC(C)C)C(=O)N[C@H](CCCNC(=N)N)C(N)=O` [D-TN6] (HELM PEPTIDE1{[dR].[dL].[dL].[dR].[dL].[dL].[dL].[dR].[dL].[dL].[dR].[am]}$$$$V2.0) was run?
Answer: 0.5 µg/mL (≈ 0.349 µM)

Question: And the “MIC MRSA 2” value ([1]; clinical strain MRSA 2)?
Answer: 1 µg/mL (≈ 0.697 µM)

Question: What about the “MIC MRSA 3” value ([1]; clinical strain MRSA 3) of the same compound?
Answer: 1 µg/mL (≈ 0.697 µM)

Question: What about the “MIC AF1” value (Aspergillus flavus (AF)) of the same compound?
Answer: 4 µg/mL (≈ 2.79 µM)

Question: What about the “MIC C. albicans” value (C. albicans ATCC 10231) of the same compound?
Answer: 0.5 µg/mL (≈ 0.349 µM)

Question: And the “MIC CK 1” value (C.krusei (CK); clinical strain CK 1)?
Answer: 2 µg/mL (≈ 1.39 µM)

Question: And the “MIC CK 2” value (C.krusei (CK); clinical strain CK 2)?
Answer: 2 µg/mL (≈ 1.39 µM)

Question: And the “MIC CK 3” value (C.krusei (CK); clinical strain CK 3)?
Answer: 2 µg/mL (≈ 1.39 µM)

Question: What about the “MIC VRE 1” value ([2]; clinical strain VRE 1) of the same compound?
Answer: 0.25 µg/mL (≈ 0.174 µM)

Question: And the “MIC VRE 2” value ([2]; clinical strain VRE 2)?
Answer: 0.25 µg/mL (≈ 0.174 µM)

Question: What about the “MIC PA1” value (P. aeruginosa (PA)) of the same compound?
Answer: 1 µg/mL (≈ 0.697 µM)

Question: And the “MIC PA2” value (P. aeruginosa (PA))?
Answer: 1 µg/mL (≈ 0.697 µM)

Question: What about the “MIC PA3” value (P. aeruginosa (PA)) of the same compound?
Answer: 0.5 µg/mL (≈ 0.349 µM)

Question: What about the “MIC PA4” value (P. aeruginosa (PA)) of the same compound?
Answer: 1 µg/mL (≈ 0.697 µM)

Question: What about the “MIC range against seven species resistant to current antibiotics” value [3] of the same compound?
Answer: 0.25 to 4 µg/mL

Question: And the “Stability toward proteinase K (HPLC)” value (proteinase K)?
Answer: resistant to proteinase K

Question: And the “Stability toward proteinase K (HPLC)” value (proteinase K; listed as D- TN6)?
Answer: highly protease-resistant

Question: What about the “MIC CA 1” value (C.albicans (CA); clinical strain CA 1) of the same compound?
Answer: 2 µg/mL (≈ 1.39 µM)

Question: What about the “MIC CA 2” value (C.albicans (CA); clinical strain CA 2) of the same compound?
Answer: 2 µg/mL (≈ 1.39 µM)

Question: And the “MIC CA 3” value (C.albicans (CA); clinical strain CA 3)?
Answer: 1 µg/mL (≈ 0.697 µM)

Question: What about the “Serum CRP” value ([4]; rat, in vivo) of the same compound?
Answer: N

Question: And the “indicators of toxicity by ALT, AST, TB, and CRP levels in serum” value ([4]; rat, in vivo)?
Answer: did not exhibit any indicators of toxicity

Question: And the “toxic alterations of liver tissue hepatocytes and stratified epithelium” value ([4]; rat, in vivo)?
Answer: did not exhibit any toxic alterations

Question: And the “IC50 3t3” value (3t3 cell line)?
Answer: 17.58 µg/mL

Question: And the “MIC KP1” value [5]?
Answer: 4 µg/mL (≈ 2.79 µM)

Question: And the “MIC KP2” value [5]?
Answer: 2 µg/mL (≈ 1.39 µM)

Question: What about the “MIC KP 3” value [5] of the same compound?
Answer: 1 µg/mL (≈ 0.697 µM)

Question: And the “MIC KP 4” value [5]?
Answer: 1 µg/mL (≈ 0.697 µM)

Question: What about the “MIC KP1” value [6] of the same compound?
Answer: 0.5 µg/mL (≈ 0.349 µM)

Question: What about the “MIC KP2” value [6] of the same compound?
Answer: 1 µg/mL (≈ 0.697 µM)

Question: And the “MIC KP8” value [6]?
Answer: 1 µg/mL (≈ 0.697 µM)

Question: And the “MIC KP9” value [6]?
Answer: 0.5 µg/mL (≈ 0.349 µM)

Question: What about the “MIC KP13” value [6] of the same compound?
Answer: 0.5 µg/mL (≈ 0.349 µM)

Question: What about the “MIC KP22” value [6] of the same compound?
Answer: 0.5 µg/mL (≈ 0.349 µM)

Question: And the “MIC KP28” value [6]?
Answer: 1 µg/mL (≈ 0.697 µM)

Question: What about the “MIC KP29” value [6] of the same compound?
Answer: 2 µg/mL (≈ 1.39 µM)

Question: What about the “MIC KP35” value [6] of the same compound?
Answer: 8 µg/mL (≈ 5.58 µM)

Question: And the “MIC KP40” value [6]?
Answer: 2 µg/mL (≈ 1.39 µM)

Question: What about the “MIC KP41” value [6] of the same compound?
Answer: 4 µg/mL (≈ 2.79 µM)

Question: What about the “MIC KP42” value [6] of the same compound?
Answer: 2 µg/mL (≈ 1.39 µM)

Question: And the “MIC KP46” value [6]?
Answer: 2 µg/mL (≈ 1.39 µM)

Question: And the “MIC KP52” value [6]?
Answer: 2 µg/mL (≈ 1.39 µM)

Question: And the “MIC range against clinical A. baumannii strains” value ([7]; AB)?
Answer: 0.25 to 2 µg/mL

Question: What about the “MIC AB1” value ([7]; clinical strain AB1) of the same compound?
Answer: 0.25 µg/mL (≈ 0.174 µM)

Question: What about the “MIC AB2” value ([7]; clinical strain AB2) of the same compound?
Answer: 2 µg/mL (≈ 1.39 µM)

Question: And the “IC50 HaCaT” value (HaCaT cell line)?
Answer: 19.64 µg/mL

Question: `CC1(C)S[C@@H]2[C@H](NC(=O)[C@H](N)c3ccccc3)C(=O)N2[C@H]1C(=O)O` [ampicillin] was tested. Which “bacterial counts in wound versus control group” value [8] did it give?
Answer: significantly reduced

Question: What about the “IL1-β, liver” value [4, 9] of the same compound?
Answer: 705.7 ± 87.07

Question: And the “IL1-β, serum” value [4, 9]?
Answer: 826.9 ± 105.5

Question: What about the “IL1-β, wound tissue” value [4, 9] of the same compound?
Answer: 1779 ± 45.54

Question: What about the “IL-6, liver” value [4, 9] of the same compound?
Answer: 35.51 ± 2.82

Question: And the “IL-6, serum” value [4, 9]?
Answer: 50.02 ± 2.04

Question: And the “IL-6, wound tissue” value [4, 9]?
Answer: 77.60 ± 4.77

Question: What about the “TNF-α, liver” value [4, 9] of the same compound?
Answer: 107.0 ± 8.14

Question: And the “TNF-α, serum” value [4, 9]?
Answer: 212.2 ± 9.02

Question: And the “TNF-α, wound tissue” value [4, 9]?
Answer: 225.4 ± 12.19

Question: What about the “wound healing by day 4 versus control group” value ([4]; MICX40 topically twice a day, p < 0.01) of the same compound?
Answer: significantly accelerated

Question: What about the “Serum ALT” value ([4]; rat, in vivo) of the same compound?
Answer: 52.4 ± 3 U/L

Question: And the “Serum AST” value ([4]; rat, in vivo)?
Answer: 161.6 ± 12.8 U/L

Question: What about the “Serum CRP” value ([4]; rat, in vivo) of the same compound?
Answer: N

Question: What about the “Serum TB” value ([4]; rat, in vivo) of the same compound?
Answer: 0.1 mg/dL

Question: And the “indicators of toxicity by ALT, AST, TB, and CRP levels in serum” value ([4]; rat, in vivo)?
Answer: did not exhibit any indicators of toxicity
